PubChem BioAssay AID2060325 (Molecular Pharmacology Branch, DTP, NCI, 2025)
Where “and” joins values, the source holds several entries; their conditions need not be identical. Equal entries are not always repeated.

System: SK-OV-3 multi-cell spheroids, viability
Assay: Anticancer human tumor SK-OV-3 cell line growth inhibition [IpAb];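 as to viability, T/C: viability read after seven days of drug exposure; percent of DMSO vehicle control luminescence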
Conditions: for viability, T/C: stronger effect = lower value
Excerpt: Combinatorial screen of targeted agents with ipatasertib and abemaciclib in multi-cell type tumor spheroids
A high-throughput screen of multi-cell type tumor spheroids was designed to identify active combinations of targeted small molecules and ipatasertib or abemaciclib. Complex spheroids include a stromal component modeled by human endothelial cells (HUVEC) and fibroblasts modeled by human mesenchymal stem cells (MSCs). The concentration ranges selected for each drug and investigational agent were based upon clinically achievable concentrations if the clinical Cmax of the agent was known.
Compounds. The drugs and investigational agents: ipatasertib (NSC767898), abemaciclib(NSC768073), selumetinib (NSC741078), trametinib (758246), adavosertib (NSC754352), everolimus (NSC733504), sapanisertib (NSC764658), vemurafenib (NSC761431), venetoclax (NSC766270), copanlisib (NSC809693), apelisib (NSC765974), palbociblib (NSC758247), vemurafenib (NSC761431), dabrafenib (NSC764134), ravoxertinib (NSC781343), BMS-387032 (NSC767048), sotorasib (NSC818433), talazoparib (NSC767125) and afursertib (NSC778305), were obtained from the National Cancer Institute (NCI) Developmental Therapeutics Program Chemical Repository. The FDA-approved anticancer drug set is available from the NCI Developmental Therapeutics Program. […] The stock solutions were prepared in dimethyl sulfoxide (DMSO, Sigma-Aldrich, St. Louis, MO, cat. D2650) at 800-fold the tested concentration and stored at -70 degrees C prior to their use. All drugs and investigational agents were tested over a range starting from a high concentration at or near the clinical Cmax and decreasing in half-log increments. If the clinical Cmax for an agent had not been determined, the highest concentration tested was 10 microM.
NCI60 Cell Culture. NCI60 cell lines were obtained from the NCI Developmental Therapeutics Program Tumor Repository. For each lot of cells, the Repository performed Applied Biosystems AmpFLSTR Identifiler testing with PCR amplification to confirm consistency with the published Identifier STR profile for each cell line. Cells were kept in continuous culture for no more than 20 passages. The optimal seeding densities for each of the cell lines at each time point assessed were determined prior to performing the concentration response studies. Briefly, the NCI60 human tumor lines were grown as monolayers in RPMI 1640 medium supplemented with 10% FBS and 2 mmol/L L-glutamine.
An additional 9 lines were from the NCI60 cell line panel including MDA-MB-231 breast carcinoma, MDA-MB-468 breast carcinoma, MCF7 breast carcinoma, Hs578T breast carcinoma, MALME-3M melanoma, SK-MEL-2 melanoma, SK-OV-3 ovarian carcinoma, DU-145 prostate carcinoma, PC-3 prostate carcinoma, all cell lines along with major genetic alterations are listed on Table 2. Pooled donor human umbilical vein endothelial cells (HUVEC, Lonza, cat. CC-2519) and human mesenchymal stem cells (hMSC, Lonza, cat. PT-2501) were purchased from Lonza (Walkersville, MD).
PDMR cell lines were grown in complete medium (DC medium): Dulbecco's modified Eagle's medium (DMEM)/F12 supplemented with 5% fetal bovine serum (FBS), 2 mM L-glutamine, 100 U/mL penicillin and 100 µg/ml streptomycin, 0.4 µg/ml hydrocortisone, 10 ng/ml epidermal growth factor (EGF) recombinant human protein, 24 µg/mL adenine, and 0.1 mg/mL primocin. During culture from frozen stock vials, PDMR cells were cultured in the same medium containing 10 µM Y-27632 (see Table 3). The PDCs were cultured in complete DMEM/F12 media without 10 microM Y-27632 dihydrochloride for at least two passages prior to the screen. The pooled donor HUVEC and hMSC were cultured in endothelial cell growth medium 2 (PromoCell, Heidelberg, Germany, cat. C-22011) and mesenchymal stem cell growth medium 2 (PromoCell, cat. C-28009), respectively. For all experiments, HUVEC and hMSC were used at passages </=5.
[…]

[1] = curve of first compound, second compound 0.1 µM
[2] = curve of first compound, second compound 0.316 µM
[3] = curve of first compound, second compound 1 µM
[4] = second compound 0.1 µM, first compound 0.0316 µM
[5] = second compound 0.1 µM, first compound 0.1 µM
[6] = second compound 0.1 µM, first compound 0.316 µM
[7] = second compound 0.1 µM, first compound 1 µM
[8] = second compound 0.1 µM, first compound 3.16 µM
[9] = second compound 0.1 µM, first compound 10 µM
[10] = second compound 0.316 µM, first compound 0.0316 µM
[11] = second compound 0.316 µM, first compound 0.1 µM
[12] = second compound 0.316 µM, first compound 0.316 µM
[13] = second compound 0.316 µM, first compound 1 µM
[14] = second compound 0.316 µM, first compound 3.16 µM
[15] = second compound 0.316 µM, first compound 10 µM
[16] = second compound 1 µM, first compound 0.0316 µM
[17] = second compound 1 µM, first compound 0.1 µM
[18] = second compound 1 µM, first compound 0.316 µM
[19] = second compound 1 µM, first compound 1 µM
[20] = second compound 1 µM, first compound 3.16 µM
[21] = second compound 1 µM, first compound 10 µM

SMILES | IC50 [1] | IC50 [2] | IC50 [3] | viability, T/C [4] | viability, T/C [5] | viability, T/C [6] | viability, T/C [7] | viability, T/C [8] | viability, T/C [9] | viability, T/C [10] | viability, T/C [11] | viability, T/C [12] | viability, T/C [13] | viability, T/C [14] | viability, T/C [15] | viability, T/C [16] | viability, T/C [17] | viability, T/C [18] | viability, T/C [19] | viability, T/C [20] | also measured
Cn1nccc1Nc1nccc(-c2ccn(C(CO)c3ccc(Cl)c(F)c3)c(=O)c2)n1 (configuration not stated) + CC(C)NCC(C(=O)N1CCN(c2ncnc3c2C(C)CC3O)CC1)c1ccc(Cl)cc1 | 5040 nM | < 31.6 nM | < 31.6 nM | 71.3% | 68% | 67.6% | 68.3% | 62.3% | 31.9% | 36.5% | 36% | 37.7% | 36.9% | 29.7% | 16.6% | 18.4% | 18.7% | 17.6% | 16.8% | 15.2% | IC50 (curve of first compound, second compound 3.16 µM): < 31.6 nM; IC50 (curve of first compound, second compound 10 µM): < 31.6 nM; viability, T/C [21]: 7.24%; viability, T/C (second compound 3.16 µM, first compound 0.0316 µM): 15.6%; viability, T/C (second compound 3.16 µM, first compound 0.1 µM): 12.6%; viability, T/C (second compound 3.16 µM, first compound 0.316 µM): 10.6%; viability, T/C (second compound 3.16 µM, first compound 1 µM): 9.52%; viability, T/C (second compound 3.16 µM, first compound 3.16 µM): 8.01%; viability, T/C (second compound 3.16 µM, first compound 10 µM): 4.41%; viability, T/C (second compound 10 µM, first compound 0.0316 µM): 9.59%; viability, T/C (second compound 10 µM, first compound 0.1 µM): 8.62%; viability, T/C (second compound 10 µM, first compound 0.316 µM): 7.34%; viability, T/C (second compound 10 µM, first compound 1 µM): 7.5%; viability, T/C (second compound 10 µM, first compound 3.16 µM): 6.98%; viability, T/C (second compound 10 µM, first compound 10 µM): 2.15%
CC(=O)c1c(C)c2cnc(Nc3ccc(N4CCNCC4)cn3)nc2n(C2CCCC2)c1=O |  |  |  |  |  |  |  |  |  |  |  |  |  |  |  |  |  |  |  |  | viability, T/C (compound 0.000949 µM): 95.2% and 104%; viability, T/C (compound 0.003 µM): 88.7% and 83.4%; viability, T/C (compound 0.00949 µM): 75.1% and 80.8%; viability, T/C (compound 0.03 µM): 60.9% and 56.5%; viability, T/C (compound 0.0949 µM): 56.6% and 55%; viability, T/C (compound 0.3 µM): 54.1% and 49.9%; IC50 (curve of compound): > 300 nM and 253 nM
C=CCn1c(=O)c2cnc(Nc3ccc(N4CCN(C)CC4)cc3)nc2n1-c1cccc(C(C)(C)O)n1 + CCN1CCN(Cc2ccc(Nc3ncc(F)c(-c4cc(F)c5nc(C)n(C(C)C)c5c4)n3)nc2)CC1 | < 31.6 nM | 39.3 nM | < 31.6 nM | 49.2% | 36.3% | 14.4% | 9.93% | 5.86% | 8.17% | 53.5% | 34.8% | 17.9% | 15% | 10.3% | 10.5% | 36.4% | 29.3% | 19.7% | 16.9% | 17.4% | IC50 (curve of first compound, second compound 0.01 µM): 90 nM; IC50 (curve of first compound, second compound 0.0316 µM): 55.9 nM; viability, T/C (second compound 0.01 µM, first compound 0.0316 µM): 83.9%; viability, T/C (second compound 0.01 µM, first compound 0.1 µM): 46.6%; viability, T/C (second compound 0.01 µM, first compound 0.316 µM): 13.1%; viability, T/C (second compound 0.01 µM, first compound 1 µM): 7.77%; viability, T/C (second compound 0.01 µM, first compound 3.16 µM): 4.03%; viability, T/C (second compound 0.01 µM, first compound 10 µM): 6.24%; viability, T/C (second compound 0.0316 µM, first compound 0.0316 µM): 63.7%; viability, T/C (second compound 0.0316 µM, first compound 0.1 µM): 36%; viability, T/C (second compound 0.0316 µM, first compound 0.316 µM): 12.1%; viability, T/C (second compound 0.0316 µM, first compound 1 µM): 8.26%; viability, T/C (second compound 0.0316 µM, first compound 3.16 µM): 6.84%; viability, T/C (second compound 0.0316 µM, first compound 10 µM): 6.66%; viability, T/C [21]: 15.6%
